Data as given in ChEMBL document CHEMBL1201862, “PubChem BioAssay data set” (2004).
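Dose response: 5 concentrations. Exposure: 48 h. Format: 96-well plates. Endpoint: linear interpolation; highest concentration if not reached. GI50: concentration for 50% inhibition of growth.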 The source made the active and inactive calls. No stated cut-off is given here; in the data, active = GI50 up to about 1.1 µM and inactive = higher.

How the values were obtained:
Experiment in all cases: growth of human tumour cells (NCI), 48 h
SK-OV-3 = system: SK-OV-3
MDA-MB-231 = system: MDA-MB-231
NCI-H226 = system: NCI-H226
CAKI-1 = system: CAKI-1
UACC-257 = system: UACC-257
M14 = system: M14
OVCAR-4 = system: OVCAR-4
ACHN = system: ACHN
SNB-19 = system: SNB-19
A498 = system: A498
Malme-3M = system: Malme-3M
RXF 393 = system: RXF 393
HCT-15 = system: HCT-15
MDA-MB-435 = system: MDA-MB-435
OVCAR-3 = system: OVCAR-3
SNB-75 = system: SNB-75
COLO 205 = system: COLO 205
NCI-H522 = system: NCI-H522
HOP-92 = system: HOP-92

Compound	GI50 (SK-OV-3)	GI50 (MDA-MB-231)	GI50 (NCI-H226)	GI50 (CAKI-1)	GI50 (UACC-257)	GI50 (M14)	GI50 (OVCAR-4)	GI50 (ACHN)	GI50 (SNB-19)	GI50 (A498)	GI50 (Malme-3M)	GI50 (RXF 393)	GI50 (HCT-15) [µM]	GI50 (MDA-MB-435)	GI50 (OVCAR-3)	GI50 (SNB-75)	GI50 (COLO 205)	GI50 (NCI-H522)	GI50 (HOP-92)
COCC1OC([P+](c2ccccc2)(c2ccccc2)c2ccccc2)CC(OC)C1OC (configuration not stated)	32.6 µM (inactive)	44.3 µM (inactive)	33.9 µM (inactive)	> 100 µM (inactive)	21 µM (inactive)	40.8 µM (inactive)	44.1 µM (inactive)	74.6 µM (inactive)	34.7 µM (inactive)	37.2 µM (inactive)	33.9 µM (inactive)	27.2 µM (inactive)	> 100	29.6 µM (inactive)	22.7 µM (inactive)	–	–	–	–
Cc1nc2c(Br)cc(Br)cc2c(=O)n1-c1ccccc1N	33 µM (inactive)	47.4 µM (inactive)	30.3 µM (inactive)	28.4 µM (inactive)	31 µM (inactive)	35.4 µM (inactive)	> 100 µM (inactive)	39.7 µM (inactive)	48.2 µM (inactive)	36.9 µM (inactive)	28.4 µM (inactive)	–	35.8	39.4 µM (inactive)	63.5 µM (inactive)	22.9 µM (inactive)	20.7 µM (inactive)	–	–
O=c1[nH]c2[nH]c(-c3ccc(Br)cc3)cc2c2ccccc12	–	15 µM (inactive)	43.5 µM (inactive)	61.1 µM (inactive)	> 100 µM (inactive)	–	24.7 µM (inactive)	66.8 µM (inactive)	29.4 µM (inactive)	> 100 µM (inactive)	> 100 µM (inactive)	24.7 µM (inactive)	> 100	> 100 µM (inactive)	> 100 µM (inactive)	19.4 µM (inactive)	34.7 µM (inactive)	> 100 µM (inactive)	–
Cc1ccc2c(=O)c(-c3nnc(NC4CCCCC4)s3)c[nH]c2n1	–	> 100 µM (inactive)	> 100 µM (inactive)	> 100 µM (inactive)	> 100 µM (inactive)	> 100 µM (inactive)	> 100 µM (inactive)	> 100 µM (inactive)	> 100 µM (inactive)	> 100 µM (inactive)	> 100 µM (inactive)	> 100 µM (inactive)	> 100	> 100 µM (inactive)	> 100 µM (inactive)	–	> 100 µM (inactive)	> 100 µM (inactive)	–
CC(=O)N1N(c2ccc([N+](=O)[O-])cc2)C(=O)C1(C)C	48 µM (inactive)	20.1 µM (inactive)	21.1 µM (inactive)	–	–	10.8 µM (inactive)	19.2 µM (inactive)	19.7 µM (inactive)	50.4 µM (inactive)	37.9 µM (inactive)	19.6 µM (inactive)	18 µM (inactive)	15.7	20.6 µM (inactive)	19.3 µM (inactive)	18.7 µM (inactive)	15.5 µM (inactive)	12.1 µM (inactive)	–
O=c1[nH]nc(Cc2ccc([N+](=O)[O-])cc2)n1CCO	> 100 µM (inactive)	> 100 µM (inactive)	> 100 µM (inactive)	> 100 µM (inactive)	> 100 µM (inactive)	> 100 µM (inactive)	> 100 µM (inactive)	> 100 µM (inactive)	> 100 µM (inactive)	> 100 µM (inactive)	> 100 µM (inactive)	–	> 100	> 100 µM (inactive)	> 100 µM (inactive)	–	> 100 µM (inactive)	> 100 µM (inactive)	> 100 µM (inactive)
CC1CC(N)=Nc2ccccc2N1Cc1ccccc1 (configuration not stated)	13.2 µM (inactive)	14.4 µM (inactive)	15.7 µM (inactive)	12.2 µM (inactive)	12.9 µM (inactive)	15.6 µM (inactive)	16.5 µM (inactive)	15.2 µM (inactive)	15.9 µM (inactive)	11.2 µM (inactive)	2.22 µM (inactive)	12 µM (inactive)	15.8	13.9 µM (inactive)	12.4 µM (inactive)	6.89 µM (inactive)	14.9 µM (inactive)	12.7 µM (inactive)	–
CC1=C2CN(C(=O)OCC(C)C)CCC2C2=C(C(=O)c3ccccc3C2=O)C1C (configuration not stated)	> 10 µM (inactive)	> 10 µM (inactive)	–	> 10 µM (inactive)	> 10 µM (inactive)	> 10 µM (inactive)	> 10 µM (inactive)	–	–	–	> 10 µM (inactive)	> 10 µM (inactive)	> 10	> 10 µM (inactive)	–	> 10 µM (inactive)	> 10 µM (inactive)	–	> 10 µM (inactive)
CCOP(=O)(OCC)/C(=C/NC(=S)c1ccncc1)C(=O)OC	> 100 µM (inactive)	> 100 µM (inactive)	> 100 µM (inactive)	> 100 µM (inactive)	> 100 µM (inactive)	> 100 µM (inactive)	> 100 µM (inactive)	> 100 µM (inactive)	> 100 µM (inactive)	–	–	> 100 µM (inactive)	> 100	> 100 µM (inactive)	> 100 µM (inactive)	–	> 100 µM (inactive)	> 100 µM (inactive)	> 100 µM (inactive)
COc1cc(C2C(Cl)C(=O)N2c2ccc(Br)cc2)cc(I)c1O (configuration not stated)	92.9 µM (inactive)	18.9 µM (inactive)	–	47.9 µM (inactive)	57 µM (inactive)	33 µM (inactive)	70.5 µM (inactive)	33.5 µM (inactive)	73.5 µM (inactive)	> 100 µM (inactive)	–	–	23.8	47.5 µM (inactive)	45.3 µM (inactive)	37.8 µM (inactive)	> 100 µM (inactive)	18.7 µM (inactive)	–
CCOC(=O)/C=C/CC(C)(C)CCOC(C)=O	> 10 µM (inactive)	> 10 µM (inactive)	> 10 µM (inactive)	> 10 µM (inactive)	> 10 µM (inactive)	> 10 µM (inactive)	> 10 µM (inactive)	> 10 µM (inactive)	> 10 µM (inactive)	–	–	> 10 µM (inactive)	> 10	> 10 µM (inactive)	> 10 µM (inactive)	> 10 µM (inactive)	> 10 µM (inactive)	> 10 µM (inactive)	> 10 µM (inactive)
CCCCCCCC(=O)NC(C)(C)C(=O)NCC(=O)NC(CC(C)C)C(=O)NC(C)(C)C(=O)NCC(=O)NCC(=O)NC(CC(C)C)C(=O)NC(C)(C)C(=O)NCC(=O)NC(C(=O)NC(CO)CC(C)C)C(C)CC (configuration not stated)	4.2 µM (inactive)	4 µM (inactive)	4.5 µM (inactive)	4.12 µM (inactive)	4.41 µM (inactive)	4.21 µM (inactive)	4.01 µM (inactive)	5 µM (inactive)	3.57 µM (inactive)	–	4.82 µM (inactive)	4.05 µM (inactive)	4.86	3.94 µM (inactive)	3.11 µM (inactive)	3.64 µM (inactive)	3.81 µM (inactive)	3.87 µM (inactive)	3.15 µM (inactive)
COc1ccc2c(c1)N=C1CSC(c3c(Cl)cccc3[N+](=O)[O-])N1C2 (configuration not stated)	> 100 µM (inactive)	33.3 µM (inactive)	0.918 µM (active)	37.8 µM (inactive)	27 µM (inactive)	51.6 µM (inactive)	56.6 µM (inactive)	36.1 µM (inactive)	> 100 µM (inactive)	–	44.3 µM (inactive)	29.5 µM (inactive)	30.8	27.5 µM (inactive)	–	25.1 µM (inactive)	24.9 µM (inactive)	31 µM (inactive)	40 µM (inactive)
O=C(Nc1ccc(Cl)cc1)c1cc2c(cc1Cl)Sc1nccn1S2(=O)=O	64 µM (inactive)	43.7 µM (inactive)	51.3 µM (inactive)	40.7 µM (inactive)	–	> 100 µM (inactive)	37.3 µM (inactive)	75.5 µM (inactive)	44.4 µM (inactive)	29.6 µM (inactive)	77.8 µM (inactive)	27.5 µM (inactive)	35.7	4.42 µM (inactive)	46.5 µM (inactive)	3.4 µM (inactive)	> 100 µM (inactive)	57.1 µM (inactive)	–
CCOC(=O)C(=CN1CCNC1=S)C(=O)OCC	> 100 µM (inactive)	> 100 µM (inactive)	> 100 µM (inactive)	> 100 µM (inactive)	> 100 µM (inactive)	> 100 µM (inactive)	> 100 µM (inactive)	> 100 µM (inactive)	–	18.2 µM (inactive)	> 100 µM (inactive)	> 100 µM (inactive)	> 100	> 100 µM (inactive)	0.288 µM (active)	–	> 100 µM (inactive)	62.7 µM (inactive)	–
N#CC(C/C=C/c1ccccc1)NNC(=O)c1c(Cl)c(Cl)c(Cl)c(Cl)c1-c1nc2cc(C(=O)c3ccccc3)ccc2[nH]1 (configuration not stated)	16.9 µM (inactive)	16.1 µM (inactive)	17.7 µM (inactive)	31.4 µM (inactive)	25.5 µM (inactive)	14.9 µM (inactive)	14 µM (inactive)	25.9 µM (inactive)	14.8 µM (inactive)	9.23 µM (inactive)	–	9.53 µM (inactive)	11.6	4.11 µM (inactive)	7.53 µM (inactive)	17.4 µM (inactive)	15 µM (inactive)	–	16.2 µM (inactive)
O=C1/C(=C/c2cccc(F)c2)CCCc2ccccc21	27.2 µM (inactive)	18.3 µM (inactive)	14.6 µM (inactive)	17.7 µM (inactive)	16.9 µM (inactive)	13.9 µM (inactive)	16.7 µM (inactive)	19.1 µM (inactive)	16 µM (inactive)	–	11.6 µM (inactive)	–	15.9	16.2 µM (inactive)	15.3 µM (inactive)	17.3 µM (inactive)	20.3 µM (inactive)	12.9 µM (inactive)	15.8 µM (inactive)
